Key:
[1] = 1H-NMR study of interaction with DPPC liposomes (PrCl3 shift reagent); conditions: 0.24 mM compound
Method: The ^1H-NMR method of investigating the Q 7-MeGlu and Q interaction with liposomes was described earlier by Gabrielska et al. with minor modifications. Mixtures of phospholipids (DPPC) with studied compounds were co-dissolved in a chloroform/methanol mixture (55:1 v/v) at the respective concentrations. The lipid concentration in the sample was 36 mM and that of Q 7-MeGlu and Q was 0.24 mM […]. The samples were first evaporated under a stream of nitrogen and then in a vacuum (overnight). Then the samples were hydrated with D2O and vigorously shaken (15 min) at temperature above the main phase transition of lipid (41 °C) until optical homogeneity of the mixture was reached. Next, the lipid suspension was sonicated with a 20 kHz sonicator (20 kHz, Sonic, Italy) to yield a homogeneous lipid dispersion. Briefly, before the measurements a 4 mM praseodymium trichloride (PrCl3 × 6H2O) in heavy water solution […] was added to the sample of 0.6 mL liposome suspension. ^1H-NMR parameters were as follows: spectral window 12.019 Hz, digital resolution 0.183 Hz, acquisition and delay times 2.73 s and 1.00 s, respectively, and acquisition temperature 325 K. The experiment was performed in two replicates.

[2] = Fluorescence measurements with MC540, TMA-DPH and DPH probes in liposome membranes; conditions: concentration 1–10 μM
Method: Small unilamellar liposomes (SUV) consisted of phosphatidylcholine (egg-PC) were prepared in accordance with the methodology described by Gabrielska and Oszmiański. The lipids were dissolved in chloroform (100 mg/mL), evaporated to dryness under nitrogen and under vacuum for another 60 min. Subsequently, a phosphate buffer […] of pH 7.4 was added and liposomes were formed by mechanical shaking. Then SUVs were formed using a 20 kHz sonicator for 15 min. During sonication the samples were thermostated at 0–2 °C. In the study, PC liposomes at a concentration of 0.1 mg/mL in phosphate buffer (pH 7.4) were used. Liposomes prepared according to the presented-above procedure were used to determine the antioxidative activity and in fluorometric studies.
The Q 7-MeGlu and Q effect on the hydrophilic and hydrophobic properties of the membrane was determined using the fluorometric method applying the MC540, TMA-DPH and DPH fluorescence probes according to the procedure described by Strugała et al.. Merocyanine 540 (MC540) is a probe that partitions into the membrane and orients parallel to the glycerol backbones of the lipids. The fluorescence intensity of MC540 emission was determined and expressed as relative intensity change in relation to control as a function of studied compounds concentration. The TMA-DPH and DPH probes are supposed to distribute in the hydrophobic part of the bilayer. All the fluorescent probes were used at 1 μM concentration. The DPH and TMA-DPH stock solutions were prepared in DMF, while the probe MC540 was dissolved in methanol. Liposomes were prepared according to procedure described in Section 3.6.1. […] Fluorescence anisotropy for TMA-DPH and DPH was calculated using the following equation [64]:(5) A=I∥−GI⊥/I∥+2GI⊥ where I∥ and I⊥ are fluorescence intensities observed in directions parallel and perpendicular, respectively to the polarization plane of the exciting wave. […]
The fluorescence experiment was conducted using a Cary Eclipse fluorimeter (Varian, Palo Alto, CA, USA). […]

[3] = tested on: T1, human serum albumin (HSA); experiment: Binding to human serum albumin (fluorescence quenching); conditions: for Ksv (Stern–Volmer quenching constant): pH 7.4
T1 construct: purchased Sigma-Aldrich
Excerpt: Fluorescence quenching induced by studied molecules is described using the well-known Stern-Volmer equation [53]:(1) F0/F=1+Kqτ0[Qu]=1+KSV[Qu] where: F0 and F are HSA fluorescence intensities before and after adding quencher, respectively, Kq is a bimolecular quenching constant, τ0 is life time of the fluorophore in the absence of quencher (the fluorescence life time of a biopolymer is about 5 × 10^−9 s, [Qu] is the quencher concentration, and KSV is the Stern–Volmer quenching constant (KSV = Kq × τ0). The plot of F0/F against [Qu] at 310 K is shown in Figure 3A,B. The Stern–Volmer plots are evidently linear in the 1–16 μM range of concentration for studied compounds.
The value of the binding constant Ka is crucial for understanding the distribution of the drug in plasma. A strong binding produces a decrease in plasma concentrations, […] the distribution and the pharmacological effect of the compound [55]. The apparent binding constant (Kb) and number of binding sites (n) can be calculated using the following equation:(2) log(F0−F/F)=logKb+nlog[Qu]
The interaction forces between a drug and a biomacromolecule may include hydrophobic forces, electrostatic interactions, van der Waals interactions, hydrogen bonds, etc. The thermodynamic parameters of binding reaction are the main evidence for confirming a binding force. In order to elucidate the binding mode, the binding constant for flavonoid–HSA complex formation was evaluated at four different temperatures. The thermodynamic parameters of the binding process can be calculated using the Van’t Hoff equation [60]:(3) lnKb=−ΔH/RT+ΔS/R
The enthalpy change ∆H is calculated on the basis of the slope of lnKb vs. […] plot. The free-energy change ΔG is estimated on the basis of the following equation:(4) ΔG=ΔH−TΔS=−RTlnKb where: ΔH ΔG and ΔS are enthalpy, free enthalpy and entropy change, respectively. R is the gas constant 8.314 J·mol^−1·K^−1.
Analysis of Q 7-MeGlu and Q interaction with human serum albumin (HSA) was performed according to the procedure described by Strugała et al.. The fluorescence measurements were performed on a Cary Eclipse fluorimeter equipped with 1.0 cm quartz cells and a thermostat bath. All quenching experiments were performed at 300, 305, 310 and 315 K for HSA in a phosphate buffer solution of pH 7.4 and final concentration 1.5 × 10^−5 M. The excitation wavelength was set at 280 nm (excitation of the Trp and Tyr), and the emission spectra were read at 285–460 nm. The excitation and emission slits were both set to 5 nm. Our method consisted in tracking the quenching of natural HSA fluorescence caused by Q 7-MeGlu and Q (of final concentrations 1, 2, 4, 6, 8, 10, 12, 14 and 16 µM) added successively. The stock solutions of Q 7-MeGlu and Q were prepared by dissolving in methanol. Control sample contained appropriate amount of methanol. […] The experiment was performed in three independent replicates (n = 3).

KSV compared with KSV for Q [3] | Structure (SMILES) | decrease (Δδ) in the splitting parameter of polar head groups resonance [1] | decrease of the Iout/Iin ratio vs pure DPPC [1] | increase in the half width of the membrane surface signal vs pure DPPC [1] | relative changes in anisotropy in the probe TMA-DPH [2] | Ksv (Stern–Volmer quenching constant) ([3]; T 300 K) | Ksv (Stern–Volmer quenching constant) ([3]; T 305 K) | Ksv (Stern–Volmer quenching constant) ([3]; T 310 K) | Ksv (Stern–Volmer quenching constant) ([3]; T 315 K) | decrease in full width at half height (ν) of band of terminal methyl group [1] | increase of the Iout/Iin ratio vs pure DPPC [1] | reduction in intensity of the MC540 probe's fluorescence [2]
approximately four times lower | CO[C@H]1[C@H](O)[C@@H](O)[C@H](Oc2cc(O)c3c(=O)c(O)c(-c4ccc(O)c(O)c4)oc3c2)O[C@@H]1CO [Q 7-MeGlu, quercetin 7-O-β-D-(4″-O-methyl)glucopyranoside] | 56% | 13% | ~142% | 5–10% | 3.837 ± 0.192 * ·10^4 M^−1 | 3.545 ± 0.025 * ·10^4 M^−1 | 3.412 ± 0.045 * ·10^4 M^−1 | 3.182 ± 0.013 * ·10^4 M^−1 | – | – | –
– | O=c1c(O)c(-c2ccc(O)c(O)c2)oc2cc(O)cc(O)c12 [Quercetin, 3,3′,4′,5,7-pentahydroxyflavone] | 32% | – | approximately 119% | 16–37% | 17.510 ± 0.152 * ·10^4 M^−1 | 16.719 ± 0.135 * ·10^4 M^−1 | 15.632 ± 0.109 * ·10^4 M^−1 | 13.718 ± 0.058 * ·10^4 M^−1 | 4% | 33% | 29–56%

— PMC6151435, “Bioactivity In Vitro of Quercetin Glycoside Obtained in Beauveria bassiana Culture and Its Interaction with Liposome Membranes” (Molecules : A Journal of Synthetic Chemistry and Natural …, 2017)
